Laboratory results from ChEMBL document CHEMBL1201862, “PubChem BioAssay data set” (2004).
Activity calls are given as the source filed them.

Legend:
[1] = molecular target: T1, Calpain-2 catalytic subunit (Sus scrofa, UniProt P43367); assay: pig calpain II inhibitor potency, dose response, biochemical, fluorogenic peptide substrate (AID 1420); type: functional
T1 sequence (P43367 whole entry): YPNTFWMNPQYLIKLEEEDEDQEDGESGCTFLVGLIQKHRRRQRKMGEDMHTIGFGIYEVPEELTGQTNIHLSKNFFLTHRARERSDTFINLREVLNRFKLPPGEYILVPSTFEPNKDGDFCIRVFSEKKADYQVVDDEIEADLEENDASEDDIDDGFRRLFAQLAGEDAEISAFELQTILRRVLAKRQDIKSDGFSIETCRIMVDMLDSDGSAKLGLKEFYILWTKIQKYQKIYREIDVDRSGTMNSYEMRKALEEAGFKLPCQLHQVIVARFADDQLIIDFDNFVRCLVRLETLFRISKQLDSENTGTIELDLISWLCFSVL

Coagulation factor XII = molecular target: T2, Coagulation factor XII (Homo sapiens, UniProt P00748); type: functional;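 further: activated factor XIIa alpha cleaving a fluorogenic AMC peptide substrate; inhibitor potency from loss of enzyme activity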
T2 sequence (P00748 whole entry): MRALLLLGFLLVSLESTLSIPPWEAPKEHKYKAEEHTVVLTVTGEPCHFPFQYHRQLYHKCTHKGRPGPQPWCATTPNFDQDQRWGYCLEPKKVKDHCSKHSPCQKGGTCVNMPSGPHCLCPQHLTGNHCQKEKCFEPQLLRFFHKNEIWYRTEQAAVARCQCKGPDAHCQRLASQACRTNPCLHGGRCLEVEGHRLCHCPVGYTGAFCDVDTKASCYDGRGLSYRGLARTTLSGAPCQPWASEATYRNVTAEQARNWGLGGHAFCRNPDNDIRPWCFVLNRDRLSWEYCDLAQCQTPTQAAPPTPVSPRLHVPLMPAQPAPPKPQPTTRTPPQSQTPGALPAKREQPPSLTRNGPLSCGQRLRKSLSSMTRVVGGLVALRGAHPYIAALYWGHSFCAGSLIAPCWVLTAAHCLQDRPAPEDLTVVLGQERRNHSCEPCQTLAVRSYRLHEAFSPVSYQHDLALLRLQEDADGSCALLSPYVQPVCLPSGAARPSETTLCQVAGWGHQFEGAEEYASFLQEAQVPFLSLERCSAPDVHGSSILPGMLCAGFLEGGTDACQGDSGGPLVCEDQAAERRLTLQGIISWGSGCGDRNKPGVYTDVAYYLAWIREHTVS

HEK293 [2] = assay: NOD2 signaling inhibitors in MDP-stimulated cells, cell-based, uHTS, luminescence (AID 2001); type: functional; details: Homo sapiens
HEK293 [3] = assay: NOD1 signaling inhibitors, primary screen, cell-based, luminescence, uHTS (AID 1578); type: functional; details: Homo sapiens
HEK293 [4] = assay: cells; type: functional, cell-based; details: Homo sapiens
HEK293 [5] = assay: cells; type: functional, cell-based; details: Homo sapiens; remark: listed apart in the source
HEK293 [6] = assay: cells; type: functional, cell-based; details: Homo sapiens; remark: listed apart in the source
HEK293 [7] = assay: cells; details: Homo sapiens
[8] = molecular target: 72 kDa type IV collagenase (Homo sapiens, UniProt P08253); assay: Dose Response validation of uHTS RPN11 inhibitor hits using a MMP-2 Fluorescence assay.; type: functional
72 kDa type IV collagenase, sequence (P08253 whole entry): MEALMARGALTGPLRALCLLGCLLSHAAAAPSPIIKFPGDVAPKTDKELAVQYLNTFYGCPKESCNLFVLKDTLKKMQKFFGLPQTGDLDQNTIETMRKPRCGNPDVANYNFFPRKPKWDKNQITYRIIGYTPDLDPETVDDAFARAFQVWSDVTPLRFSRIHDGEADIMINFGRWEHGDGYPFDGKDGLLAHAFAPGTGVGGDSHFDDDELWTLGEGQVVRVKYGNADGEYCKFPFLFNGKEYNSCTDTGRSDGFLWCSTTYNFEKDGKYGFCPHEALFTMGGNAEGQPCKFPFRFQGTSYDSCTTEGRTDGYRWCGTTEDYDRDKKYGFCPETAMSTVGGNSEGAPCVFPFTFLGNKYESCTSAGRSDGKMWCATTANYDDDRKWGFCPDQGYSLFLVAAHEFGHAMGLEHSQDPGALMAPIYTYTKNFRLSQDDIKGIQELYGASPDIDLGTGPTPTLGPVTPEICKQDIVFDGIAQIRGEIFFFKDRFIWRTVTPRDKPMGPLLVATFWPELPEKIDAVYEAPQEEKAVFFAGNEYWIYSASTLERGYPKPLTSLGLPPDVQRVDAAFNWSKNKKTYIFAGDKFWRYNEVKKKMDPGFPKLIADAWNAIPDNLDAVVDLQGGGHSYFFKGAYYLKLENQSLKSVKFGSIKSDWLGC

[9] = molecular target: T3, Small ubiquitin-related modifier 1 (Homo sapiens, UniProt P63165); assay: inhibitors of SUMO1 partner interactions, dose response, biochemical, FRET (AID 624383); type: functional; details: read-out: IC50_Mean
T3 sequence (P63165 whole entry): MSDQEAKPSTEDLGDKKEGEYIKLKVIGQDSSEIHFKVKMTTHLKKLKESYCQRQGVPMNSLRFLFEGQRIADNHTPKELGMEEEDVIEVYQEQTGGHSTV

SUMO-activating enzyme [10] = molecular target: T4, SUMO-activating enzyme (Homo sapiens, UniProt Q9UBT2); assay: SUMOylation inhibitor hit validation, confirmation, SUMOylation inhibitor project, biochemical, AlphaScreen (AID 2018); type: functional
T4 sequence (Q9UBE0 whole entry): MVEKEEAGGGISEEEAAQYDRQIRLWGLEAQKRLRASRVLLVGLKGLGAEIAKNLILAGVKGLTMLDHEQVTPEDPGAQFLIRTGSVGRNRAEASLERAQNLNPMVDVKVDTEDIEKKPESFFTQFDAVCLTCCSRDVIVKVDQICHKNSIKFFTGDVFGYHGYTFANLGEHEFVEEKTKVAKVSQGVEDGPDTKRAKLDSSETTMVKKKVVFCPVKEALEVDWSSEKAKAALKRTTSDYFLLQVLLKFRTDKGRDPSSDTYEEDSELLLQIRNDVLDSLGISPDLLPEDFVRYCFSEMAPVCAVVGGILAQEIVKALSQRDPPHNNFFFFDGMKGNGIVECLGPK
T4 sequence (Q9UBT2 whole entry): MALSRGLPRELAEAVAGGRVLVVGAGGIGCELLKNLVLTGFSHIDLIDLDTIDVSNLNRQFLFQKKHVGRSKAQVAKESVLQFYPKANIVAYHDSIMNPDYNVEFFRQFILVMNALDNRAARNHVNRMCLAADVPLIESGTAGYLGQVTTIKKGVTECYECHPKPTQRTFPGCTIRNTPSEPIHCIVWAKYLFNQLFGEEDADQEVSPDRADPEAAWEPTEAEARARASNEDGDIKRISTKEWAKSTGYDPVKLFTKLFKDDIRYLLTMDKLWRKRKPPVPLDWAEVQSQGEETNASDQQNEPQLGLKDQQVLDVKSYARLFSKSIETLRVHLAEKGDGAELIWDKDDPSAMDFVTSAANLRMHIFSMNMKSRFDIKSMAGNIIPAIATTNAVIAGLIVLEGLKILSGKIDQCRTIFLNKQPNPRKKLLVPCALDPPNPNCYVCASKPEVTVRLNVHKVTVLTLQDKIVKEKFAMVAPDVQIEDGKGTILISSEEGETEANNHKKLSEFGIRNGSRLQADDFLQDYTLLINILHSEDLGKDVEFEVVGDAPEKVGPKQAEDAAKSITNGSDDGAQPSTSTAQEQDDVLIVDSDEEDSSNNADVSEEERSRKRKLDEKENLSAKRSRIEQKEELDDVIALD

[11] = molecular target: T5, Tyrosine-protein phosphatase non-receptor type 11 (Homo sapiens, UniProt Q06124); assay: SHP2 phosphatase inhibition, dose response, selectivity assay for STEP inhibitor project, biochemical (AID 602367); type: functional; details: read-out: IC50_Mean
T5 sequence (Q06124 whole entry): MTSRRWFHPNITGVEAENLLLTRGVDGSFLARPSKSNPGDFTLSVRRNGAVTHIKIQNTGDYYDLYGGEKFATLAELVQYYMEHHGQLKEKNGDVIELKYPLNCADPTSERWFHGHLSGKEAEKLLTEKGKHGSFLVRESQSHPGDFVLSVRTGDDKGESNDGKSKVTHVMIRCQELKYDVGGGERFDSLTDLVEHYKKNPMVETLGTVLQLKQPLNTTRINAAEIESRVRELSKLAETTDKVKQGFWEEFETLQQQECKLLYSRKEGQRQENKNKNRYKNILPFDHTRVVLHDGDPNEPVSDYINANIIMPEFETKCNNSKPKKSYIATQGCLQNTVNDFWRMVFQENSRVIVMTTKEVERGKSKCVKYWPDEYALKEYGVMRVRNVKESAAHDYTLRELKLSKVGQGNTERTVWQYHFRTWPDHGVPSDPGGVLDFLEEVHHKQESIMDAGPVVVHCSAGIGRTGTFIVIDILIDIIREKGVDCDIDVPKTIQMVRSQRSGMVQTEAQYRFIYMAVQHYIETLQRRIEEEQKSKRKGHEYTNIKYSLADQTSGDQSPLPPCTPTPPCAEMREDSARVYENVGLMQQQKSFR

[12] = molecular target: T6, Tyrosine-protein phosphatase non-receptor type 5 (Homo sapiens, UniProt P54829); assay: STEP phosphatase inhibitors, confirmation, biochemical, fluorescence intensity, uHTS hits (AID 602372); type: functional; details: read-out: IC50_Mean
T6 sequence (P54829 whole entry): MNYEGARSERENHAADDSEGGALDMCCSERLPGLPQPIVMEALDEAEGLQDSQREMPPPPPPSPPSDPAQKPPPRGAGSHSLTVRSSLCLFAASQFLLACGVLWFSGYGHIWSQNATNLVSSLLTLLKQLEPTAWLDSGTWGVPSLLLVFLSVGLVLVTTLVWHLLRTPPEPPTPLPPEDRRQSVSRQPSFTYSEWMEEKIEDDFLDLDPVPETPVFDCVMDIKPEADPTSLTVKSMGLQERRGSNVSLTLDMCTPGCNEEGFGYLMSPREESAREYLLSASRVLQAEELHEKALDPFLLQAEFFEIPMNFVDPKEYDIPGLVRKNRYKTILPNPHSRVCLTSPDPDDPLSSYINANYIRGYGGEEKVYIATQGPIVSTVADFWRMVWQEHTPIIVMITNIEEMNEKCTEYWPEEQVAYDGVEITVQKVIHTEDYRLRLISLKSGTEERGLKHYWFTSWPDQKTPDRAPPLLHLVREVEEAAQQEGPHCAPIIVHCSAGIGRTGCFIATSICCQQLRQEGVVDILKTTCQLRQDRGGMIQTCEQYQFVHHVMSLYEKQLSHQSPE

[13] = molecular target: T3, Small ubiquitin-related modifier 1; assay: inhibitors of SUMO1 peptide binding, dose response, biochemical, fluorescence polarization, uHTS hits (AID 624382); type: functional; details: read-out: IC50_Mean
SUMO-activating enzyme [14] = molecular target: T4, SUMO-activating enzyme; assay: inhibitors of in vitro SUMOylation cascade, primary screen, biochemical, HTRF, uHTS (AID 2006); type: protein-complex assay
[15] = molecular target: 26S proteasome non-ATPase regulatory subunit 14 (Homo sapiens, UniProt O00487); assay: inhibition of proteasome subunit RPN11 – biochemical, fluorescence polarization, uHTS hits, confirmation (AID 602368); type: functional
26S proteasome non-ATPase regulatory subunit 14, sequence (O00487 whole entry): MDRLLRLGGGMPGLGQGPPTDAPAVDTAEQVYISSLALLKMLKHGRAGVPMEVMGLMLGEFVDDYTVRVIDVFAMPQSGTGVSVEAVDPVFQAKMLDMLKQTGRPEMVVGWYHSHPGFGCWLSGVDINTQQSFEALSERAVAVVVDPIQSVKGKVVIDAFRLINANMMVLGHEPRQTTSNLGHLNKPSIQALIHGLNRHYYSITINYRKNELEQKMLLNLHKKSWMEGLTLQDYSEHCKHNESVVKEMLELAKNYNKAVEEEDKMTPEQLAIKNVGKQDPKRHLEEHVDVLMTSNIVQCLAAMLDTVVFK

[16] = molecular target: Dual specificity protein phosphatase 3 (Homo sapiens, UniProt P51452); assay: VHR phosphatase inhibition, dose response, selectivity assay for STEP inhibitor project, biochemical (AID 602374); type: functional; details: read-out: IC50_Mean
Dual specificity protein phosphatase 3, sequence (P51452 whole entry): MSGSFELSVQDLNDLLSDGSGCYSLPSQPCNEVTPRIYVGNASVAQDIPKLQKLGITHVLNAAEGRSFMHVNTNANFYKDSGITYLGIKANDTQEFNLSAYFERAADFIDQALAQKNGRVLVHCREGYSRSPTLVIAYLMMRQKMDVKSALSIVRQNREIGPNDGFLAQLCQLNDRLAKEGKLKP

Prothrombin [17] = molecular target: Prothrombin (Bos taurus, UniProt P00735); assay: thrombin inhibition, dose response, biochemical, fluorescence polarization, uHTS hits (AID 602369); type: functional
[18] = molecular target: T7, Alkaline phosphatase, tissue-nonspecific isozyme (Homo sapiens, UniProt P05186); assay: TNAP enzyme inhibition by screening hits, dose response, selectivity assay for mouse IAP inhibitor project, biochemical, human TNAP, uHTS hits (AID 488906); type: functional
T7 sequence (P05186 whole entry): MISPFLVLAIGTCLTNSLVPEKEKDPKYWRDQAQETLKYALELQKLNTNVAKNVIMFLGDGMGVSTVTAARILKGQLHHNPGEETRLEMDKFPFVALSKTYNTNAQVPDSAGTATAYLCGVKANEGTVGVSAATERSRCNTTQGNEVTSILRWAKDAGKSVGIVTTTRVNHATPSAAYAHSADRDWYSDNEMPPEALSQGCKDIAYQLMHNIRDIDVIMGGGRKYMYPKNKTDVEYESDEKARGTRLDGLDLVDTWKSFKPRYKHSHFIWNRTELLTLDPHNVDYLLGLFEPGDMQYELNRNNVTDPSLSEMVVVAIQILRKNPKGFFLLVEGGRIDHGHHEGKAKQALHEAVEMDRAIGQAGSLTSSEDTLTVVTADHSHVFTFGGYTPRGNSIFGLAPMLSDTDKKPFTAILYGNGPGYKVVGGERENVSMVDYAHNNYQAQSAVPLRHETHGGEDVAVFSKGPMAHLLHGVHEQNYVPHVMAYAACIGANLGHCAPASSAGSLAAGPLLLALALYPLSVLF

[19] = molecular target: T8, Mannose-6-phosphate isomerase (Homo sapiens, UniProt P34949); assay: inhibitors of human PMI, primary screen, biochemical, fluorescence intensity, coupled assay (AID 1209)
T8 sequence (P34949 whole entry): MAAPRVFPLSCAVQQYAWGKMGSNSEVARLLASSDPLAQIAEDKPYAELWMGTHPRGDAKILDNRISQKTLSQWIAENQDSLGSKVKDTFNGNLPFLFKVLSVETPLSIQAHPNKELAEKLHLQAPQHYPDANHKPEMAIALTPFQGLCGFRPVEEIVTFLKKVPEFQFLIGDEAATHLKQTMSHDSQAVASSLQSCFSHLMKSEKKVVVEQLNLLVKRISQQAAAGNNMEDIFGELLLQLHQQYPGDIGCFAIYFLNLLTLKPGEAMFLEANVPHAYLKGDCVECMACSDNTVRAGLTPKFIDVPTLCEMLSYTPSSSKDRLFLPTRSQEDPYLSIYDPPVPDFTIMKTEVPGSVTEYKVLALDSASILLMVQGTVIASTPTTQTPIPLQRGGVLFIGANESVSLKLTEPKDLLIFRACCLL

[20] = molecular target: Intestinal-type alkaline phosphatase (Mus musculus, UniProt P24822); assay: PubChem AID 488785; type: functional
Intestinal-type alkaline phosphatase (Mus musculus, UniProt P24822), sequence (P24822 whole entry): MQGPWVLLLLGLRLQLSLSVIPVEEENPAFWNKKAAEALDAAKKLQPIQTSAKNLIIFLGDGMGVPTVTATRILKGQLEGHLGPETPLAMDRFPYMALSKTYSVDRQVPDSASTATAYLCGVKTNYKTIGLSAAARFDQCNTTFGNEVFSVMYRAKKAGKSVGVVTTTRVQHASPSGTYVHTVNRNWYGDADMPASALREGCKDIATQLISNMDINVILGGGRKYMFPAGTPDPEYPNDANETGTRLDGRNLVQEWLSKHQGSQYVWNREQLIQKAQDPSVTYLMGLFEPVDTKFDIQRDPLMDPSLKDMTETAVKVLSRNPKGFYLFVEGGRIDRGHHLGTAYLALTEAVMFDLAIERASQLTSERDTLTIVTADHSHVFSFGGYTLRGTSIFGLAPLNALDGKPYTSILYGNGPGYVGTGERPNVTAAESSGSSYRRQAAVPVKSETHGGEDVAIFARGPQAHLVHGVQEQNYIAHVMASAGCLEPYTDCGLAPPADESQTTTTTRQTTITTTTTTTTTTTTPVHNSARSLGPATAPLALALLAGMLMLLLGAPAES

[21] = molecular target: T8, Mannose-6-phosphate isomerase; assay: PMI enzyme inhibitors, confirmation, biochemical, fluorescence intensity (AID 1535)
[22] = molecular target: Intestinal-type alkaline phosphatase (Homo sapiens, UniProt P09923); assay: inhibition of human intestinal alkaline phosphatase – biochemical, dose response (AID 488876); type: functional
Intestinal-type alkaline phosphatase (Homo sapiens, UniProt P09923), sequence (P09923 whole entry): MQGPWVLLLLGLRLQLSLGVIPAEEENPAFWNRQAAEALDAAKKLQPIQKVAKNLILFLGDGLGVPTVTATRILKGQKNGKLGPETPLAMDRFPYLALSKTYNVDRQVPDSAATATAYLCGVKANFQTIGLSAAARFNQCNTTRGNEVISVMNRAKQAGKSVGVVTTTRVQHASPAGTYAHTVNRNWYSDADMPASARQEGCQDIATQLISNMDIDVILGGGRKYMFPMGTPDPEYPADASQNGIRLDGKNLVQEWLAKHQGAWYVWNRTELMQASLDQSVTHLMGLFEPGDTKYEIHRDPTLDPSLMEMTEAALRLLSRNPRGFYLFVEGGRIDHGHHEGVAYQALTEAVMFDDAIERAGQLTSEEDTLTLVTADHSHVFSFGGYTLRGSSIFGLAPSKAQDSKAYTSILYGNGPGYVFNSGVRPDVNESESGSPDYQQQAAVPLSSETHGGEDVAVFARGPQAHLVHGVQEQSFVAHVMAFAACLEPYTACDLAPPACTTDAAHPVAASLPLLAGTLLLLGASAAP

Phosphomannomutase 2 = molecular target: T9, Phosphomannomutase 2 (Homo sapiens, UniProt O15305); assay: Counter screen SAR assay for PMM2 inhibitors via a fluorescence intensity assay. [Related pubchem assays (depositor defined):AID1545, AID1574]
T9 sequence (O15305 whole entry): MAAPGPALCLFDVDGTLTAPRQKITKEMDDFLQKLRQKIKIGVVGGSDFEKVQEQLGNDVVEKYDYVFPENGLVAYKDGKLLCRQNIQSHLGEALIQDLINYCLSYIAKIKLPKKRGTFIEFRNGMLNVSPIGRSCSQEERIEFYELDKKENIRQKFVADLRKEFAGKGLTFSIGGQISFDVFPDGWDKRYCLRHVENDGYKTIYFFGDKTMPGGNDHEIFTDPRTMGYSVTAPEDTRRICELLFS

[23] = Luminescence Cell-Based Dose Response HTS to Identify Activators of Luciferase Translation or Activity in H4 […] Cells. [Related pubchem assays: 1829 (Project Summary), 1814 (Primary HTS)]; type: functional
Prothrombin [24] = molecular target: Prothrombin (Homo sapiens, UniProt P00734); assay: Thrombin 1536 HTS Dose Response Confirmation. [Related pubchem assays: 1046 (Thrombin 1536 HTS; hits were confirmed in this assay)]; type: functional
H4 = assay: Luminescence Cell-Based Dose Response HTS to Identify Activators of 5'UTR Stem-Loop Driven Prion Protein mRNA Translation in H4 Neuroglioblastoma Cells. [Related pubchem assays: 1829 (Project Summary), 1814 (Primary HTS)]; type: functional; details: Homo sapiens
[25] = Luminescence Cell-Based Dose Retest to Confirm Inhibitors of Cancer Stem Cells. [Related pubchem assays (depositor defined):AID2717, AID2721]; type: functional, Homo sapiens
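Wherever AC50 is given: cells exposed to compound for roughly 70 hours or longer before luminescence read.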

O=C1N=C(Nc2ccccc2)S/C1=C/c1cccs1
IC50 [1]: > 50 µM (not active)
IC50 (Coagulation factor XII): > 50 µM (inactive)

Cc1oc(-c2ccccc2Cl)nc1CSc1nc(O)c2c(n1)CCCC2
IC50 (HEK293 [2]): 7.49 µM (active)
EC50 (HEK293 [3]): 8.45 µM (active)
IC50 (HEK293 [4]): > 20 µM (inactive)
IC50 (HEK293 [5]): 19.5 µM (active)
IC50 (HEK293 [6]): > 20 µM (inactive)
IC50 (HEK293 [7]): > 20 µM (inactive)

O=Cc1cn(-c2ccccc2)nc1-c1cc2cc(O)ccc2oc1=O
IC50 [8]: > 100 µM (inactive)
IC50 [9]: 7.28 µM (active)
IC50 (SUMO-activating enzyme [10]): 11.4 µM (active)
IC50 [11]: 1.96 µM (active)
IC50 [12]: 27.5 µM (inactive)
IC50 [13]: > 66.6 µM (inactive)
IC50 (SUMO-activating enzyme [14]): 18.1 µM (active)
IC50 [15]: 19.4 µM (active)
IC50 [16]: 3.02 µM (active)
IC50 (Prothrombin [17]): 35.5 µM (active)

O=C(CSc1nc[nH]n1)CSc1nc[nH]n1
IC50 [18]: 8.85 µM (active)
IC50 [19]: 12.7 µM (active)
IC50 [20]: 0.373 µM (active)
IC50 [21]: > 50 µM (inactive)
IC50 [22]: 7.33 µM (active)
IC50 (Phosphomannomutase 2): > 100 µM (inactive)

O=C(NNC1=NCCCCC1)Nc1cccc(Cl)c1
EC50 [23]: 0.409 µM (active)
IC50 (Coagulation factor XII): > 50 µM (inactive)
IC50 (Prothrombin [24]): 7.74 µM (active)
EC50 (H4): 0.242 µM (active)

C=C(C)[C@@H]1CC[C@]2(C(=O)O)CC[C@]3(C)[C@H](CC[C@@H]4[C@@]5(C)CC[C@H](O)C(C)(C)[C@@H]5CC[C@]43C)[C@@H]12 [BETULINIC ACID]
IC50 (SUMO-activating enzyme [10]): 13.2 µM (active)
AC50 [25]: 1.94 µM (active)
AC50 ([25]; Homo sapiens): 3.05 µM (active)
IC50 (SUMO-activating enzyme [14]): 9.24 µM (active)
